Values quoted from earlier work in patent US6358940B1, “Modified 2-Alkoxyestradiol derivatives with prolonged pharmacological activity” (priority 1999, dated 2002).

What was measured:
[1] = system: tubulin polymerization; settings: antitubulin activity and cytotoxicity
[2] = system: human non-small cell lung cancer line
[3] = system: angiogenesis
[4] = system: neovascularization; settings: in vivo
[5] = system: cancer cell cultures

Row | Structure (SMILES) | potency relative to 2-methoxyestradiol [1] | apoptotic cell death ([2]; after drug treatment) | wild-type p53 levels ([2]; human non-small cell lung cancer line, with accumulation of p21WAF1/CIP1) | inhibitory effect on angiogenesis [3] | inhibition of neovascularization ([4]; mice) | signs of toxicity ([4]; mouse) | cytotoxicity [5]
1 | CC=Cc1cc2c(cc1O)CCC1C2CCC2(C)C(O)CCC12 (stereo not drawn) [2-((E)-l-propenyl)-estradiol] | substantially more potent than 2-methoxyestradiol |  |  |  |  |  | 
2 | CCOc1cc2c(cc1O)CC[C@@H]1[C@@H]2CC[C@]2(C)[C@@H](O)CC[C@@H]12 [2-Ethoxyestradiol] | substantially more potent than 2-methoxyestradiol |  |  |  |  |  | 
3 | COc1cc2c(cc1O)CC[C@@H]1[C@@H]2CC[C@]2(C)[C@@H](O)CC[C@@H]12 [2-methoxyestradiol] |  | Significant apoptotic cell death | increases wild-type p53 levels | strong inhibitory effect on angiogenesis | potent inhibitor of neovascularization | No signs of toxicity | cytotoxic
